Experimental data reported in patent US9504701B2, “Methods for treating viral infections using hydrogen sulfide donors” (THE BOARD OF REGENTS OF THE UNIVERSITY OF TEXAS SYSTEM, priority 2014, dated 2016).

Legend:
[1] = tested on: A549 cells infected with RSV; assay type: cell-based, human
RSV = RSV replication in A549 cells, viral titers by plaque assay; assay type: cell-based, RSV Long strain; settings: PAG 20 or 40 mM, 24 h p.i.

`C#CCC(N)C(=O)O` (racemic) [PAG, DL-propargylglycin] was tested, and the “levels of production of several cytokines and chemokines in response to RSV infection” value [1] was “significantly increased”, the “basal cellular mediator secretion” value (uninfected cells) was “no effect” and the “uninfected-cell viability (trypan blue exclusion)” value (uninfected cells) was “no effect”. For the same compound, the “increase in viral infectious-particle formation (plaque assay)” value (RSV) was 3- to 4 fold.
